{"source": "patent US8029799B2", "about": "“Use of thymosin alpha 1 for preparing a medicament for the treatment of stage IV malignant melanoma” (SciClone Pharmaceuticals, Inc., priority 2006, dated 2011)", "key": {"[1]": {"test_system": "human non-small cell lung cancer (NSCLC) cells", "conditions": "1 or 10 mg per day subcutaneous; nude mice inoculated with human NSCLC cells; cited from earlier work"}, "[2]": {"test_system": "methylcholanthrene-induced fibrosarcoma", "conditions": "mice with methylcholanthrene-induced fibrosarcoma; cited from earlier work"}, "[3]": {"test_system": "Stage IV Melanoma Characterized by Distant Unresectable Metastases", "test": "Phase II clinical trial, tumor response (RECIST) in stage IV melanoma patients", "type": "in vivo, human", "conditions": "preliminary analysis on 142 patients; higher doses of Tα1", "procedure": "Trial Design phase II, randomized, stratified, open-study testing different doses of Tα1 in association with DTIC and IFNα, as first line therapy for stage IV melanoma patients characterized by distant unresectable metastases (AJCC; Journal of Clinical Oncology 2001, 19: 3635-3648) without brain metastases. The primary study end-point was tumor response, and the following combination composition were used: • DTIC (800 mg/m^2)+IFNα (3 MIU)+Tα1 (1.6 mg) (97 pts); • DTIC (800 mg/m^2)+IFNα (3 MIU)+Tα1 (3.2 mg) (97 pts); • DTIC (800 mg/m^2)+Tα1 (3.2 mg) (98 pts); • DTIC (800 mg/m^2)+IFNα (3 MIU) (94 pts);\nThe five groups were analyzed independently one another within the so-called “pick the winner” strategy.\nMethods: Recycling every 28 days, patients were administered DTIC (800 mg/m^2) i.v. at day 1, Tα1 (1.6, 3.2 or 6.4 mg) s.c. at days 8-11 and 15-18, and IFNα (3 MIU) s.c. at day 11 and 18. Clinical response was evaluated every two cycles according to RECIST criteria (New Guidelines to Evaluate the Response to Treatment in Solid Tumors; Journal of the National Cancer Institute, 2000. 92: 205-216) utilizing a central reader.\nThe randomized patients were stratified according to the disease site: M1a, M1b or M1c level.\n1) Patients with cutaneous, subcutaneous and/or limphnodal metastases with normal serum LDH value (from 96 to 460 U/L) were classified as M1a. […]"}, "[4]": {"test_system": "lymphosarcoma cells", "conditions": "BALB/c mice; cited from earlier work"}}, "note": "Ends that are not written are not given here."}
{"substance": "thymosin alpha 1 (SDAAVDTSSEITTKDLKEKKEVVEEAEN; ends and bridges not checked; UniProt P06454 2-29, looked up) [a compound well known in the medical field]", "values": [{"measurement": "tumor volume", "setting": "[1]", "value": "significantly decreased"}, {"measurement": "pulmonary metastases", "setting": "[2]", "value": "reduced"}, {"measurement": "dose-response effect", "setting": "[3]", "value": "clear dose-response effect"}, {"measurement": "liver and lung metastases of lymphosarcoma cells", "setting": "[4]", "value": "significantly reduced"}, {"measurement": "local sarcoma growth", "setting": "[4]", "value": "significantly reduced"}]}
